This passage reports IC50 results from ChEMBL document CHEMBL2417443, “Efficient synthesis and antiproliferative activity of novel thioether-substituted flavonoids” (Eur J Med Chem, 2013).

Structures are written as SMILES.

Type in all cases: functional, cell-based
One experiment has as its system MCF7. Briefly: Cytotoxicity against human MCF7 cells after 72 hrs by MTT assay. As to conditions: MCF7, 72 h. (Formazan colour is commonly taken as a measure of viable cells.)
For a further experiment, the system named is HEp-2. Briefly: Cytotoxicity against human Hep2 cells after 72 hrs by MTT assay. As to conditions: HEp-2, 72 h.
Experiment [1] is described as follows: Cytotoxicity against human MDA-MB-435S cells after 72 hrs by MTT assay.
The subject of a further experiment is SW480. Briefly: Cytotoxicity against human SW480 cells after 72 hrs by MTT assay. As to conditions: SW480, 72 h.
A short description of experiment [2]: Cytotoxicity against human LM7 cells after 72 hrs by MTT assay. Particulars: LM7, 72 h.
Another experiment concerns HeLa. Briefly: Cytotoxicity against human HeLa cells after 72 hrs by MTT assay.

For the compound `Cc1cc(C)nc(SCn2cnc3c(Cl)cccc3c2=O)n1`, the 50% inhibitory concentration (IC50) (in the experiment with MCF7; in the experiment on HEp-2; in experiment [1]; in the experiment on SW480; in experiment [2]; in the experiment with HeLa) was more than 25 µM in each case.
Regarding `O=c1[nH]cc(F)c(=O)[nH]1` [FLUOROURACIL], the figures for the IC50 (with MCF7; in experiment [2]; in the experiment on HeLa) were 3.6 µM, 18.6 µM and 3.4 µM, respectively.
`O=c1cc(CSc2nc3ccccc3o2)c2ccc(O)c(O)c2o1`: the IC50 (with MCF7; in the experiment on HEp-2; in experiment [1]; with SW480; in experiment [2]; in the experiment on HeLa) was more than 25 µM throughout.
Consider `Cc1cc(C)n2nc(SCc3cc(=O)c4cc(Cl)ccc4o3)nc2n1`, for which the concentration for half-maximal inhibition (IC50) (with MCF7; in the experiment on HEp-2; in experiment [1]; in the experiment with SW480; in experiment [2]; in the experiment with HeLa) was more than 25 µM each time.
For `Cc1cc(C)n2nc(SCc3cc(=O)c4ccccc4o3)nc2n1`, the IC50 (in the experiment with MCF7; in the experiment on HEp-2; in experiment [1]; with SW480; in experiment [2]; in the experiment with HeLa) was more than 25 µM throughout.
For `Cc1cc(O)cc2oc(=O)cc(CSc3nc4ccccc4[nH]3)c12`, the half-inhibitory concentration (IC50) (with MCF7; in the experiment on HEp-2; in experiment [1]; in the experiment on SW480; in experiment [2]; with HeLa) was more than 25 µM throughout.
For `O=c1c2cccc(Cl)c2ncn1CSc1nc2ccccc2s1`, the IC50 (in the experiment with MCF7; in the experiment with HEp-2; in experiment [1]; in the experiment with SW480; in experiment [2]; in the experiment on HeLa) was more than 25 µM each time.
Consider `Cc1nnc(Sc2c(C)oc3ccccc3c2=O)o1`, for which the IC50 (in the experiment on MCF7; in the experiment on HEp-2; in experiment [1]; with SW480; in experiment [2]; with HeLa) was more than 50 µM throughout.
On to `Cc1ccc2oc(CSc3nc(C)cc(C)n3)cc(=O)c2c1`, for which the IC50 (with MCF7; in the experiment with HEp-2; in experiment [1]; in the experiment with SW480; in experiment [2]; in the experiment with HeLa) was more than 25 µM throughout.
As to `Nc1nnc(SCc2coc3ccccc3c2=O)s1`, the concentration for half-maximal inhibition (IC50) (commonly the concentration needed to halve the response being measured) in the experiment on MCF7 was more than 25 µM; with HEp-2 it was 1.5 µM; in experiment [1], 0.95 µM; in the experiment with SW480, more than 25 µM; in experiment [2], 0.73 µM; in the experiment with HeLa, more than 25 µM.
As to `Cc1cc(C)n2nc(SCc3nnc(SCc4coc5ccccc5c4=O)s3)nc2n1`, the IC50 was 9.5 µM with MCF7; 5.3 µM in the experiment on HEp-2; 1.1 µM in experiment [1]; 1.5 µM in the experiment with SW480; 2.5 µM in experiment [2]; more than 25 µM with HeLa.
Take `Cc1cc(C)nc(SCc2cc(=O)c3cc(Cl)ccc3o2)n1`: the IC50 (with MCF7; with HEp-2; in experiment [1]; with SW480; in experiment [2]; with HeLa) was more than 25 µM throughout.
With `Cc1cc(C)n2nc(SCn3cnc4c(Cl)cccc4c3=O)nc2n1`, the IC50 (in the experiment on MCF7; with HEp-2; in experiment [1]; in the experiment on SW480; in experiment [2]; in the experiment on HeLa) was more than 25 µM throughout.
`O=c1c2ccccc2ncn1CSc1nc2ccccc2s1`: the IC50 (in the experiment with MCF7; in the experiment on HEp-2; in experiment [1]; in the experiment with SW480; in experiment [2]; in the experiment on HeLa) was more than 25 µM in each case.
On to `Nc1nnc(SCc2cc(=O)c3cc(Cl)ccc3o2)s1`, for which the half-maximal inhibitory concentration (IC50) (in the experiment on MCF7; in the experiment on HEp-2; in experiment [1]; in the experiment with SW480; in experiment [2]; in the experiment on HeLa) was more than 25 µM each time.
Regarding `O=c1cc(CSc2nc3ccccc3s2)oc2ccccc12`, the IC50 (in the experiment with MCF7; with HEp-2; in experiment [1]; in the experiment with SW480; in experiment [2]; in the experiment with HeLa) was more than 25 µM in each case.
Turning to `O=c1c(CSc2nc3ccccc3o2)coc2ccccc12`, the IC50 is 4.8 µM with MCF7; 2.7 µM in the experiment with HEp-2; 1.4 µM in experiment [1]; 3.2 µM in the experiment with SW480; 5.3 µM in experiment [2]; more than 25 µM in the experiment on HeLa.
Turning to `Cc1cc(C)n2nc(SCc3nnc(SCc4coc5ccccc5c4=O)n3N)nc2n1`, the IC50 is more than 25 µM in the experiment on MCF7; 7.1 µM in the experiment with HEp-2; 3 µM in experiment [1]; 3.6 µM in the experiment with SW480; 1.9 µM in experiment [2]; more than 25 µM in the experiment on HeLa.
Regarding `Cc1nnc(SCc2coc3ccc(Cl)cc3c2=O)o1`, the IC50 is 5 µM in the experiment on MCF7; 6.4 µM in the experiment with HEp-2; 3.3 µM in experiment [1]; 3.5 µM in the experiment with SW480; 8.7 µM in experiment [2]; 3.2 µM in the experiment with HeLa.
As to `COC(=O)Nc1ccc2c(CSc3nc(C)cc(C)n3)cc(=O)oc2c1`, the IC50 in the experiment with MCF7 worked out at 9.9 µM; in the experiment on HEp-2, 8 µM; in experiment [1] it was 19 µM; with SW480, 13.2 µM; in experiment [2] it was 8.2 µM; in the experiment on HeLa, 14.3 µM.
As to `Nc1nnc(SCn2cnc3ccccc3c2=O)s1`, the IC50 (in the experiment with MCF7; in the experiment on HEp-2; in experiment [1]; in the experiment on SW480; in experiment [2]; with HeLa) was more than 25 µM throughout.
`Nc1nc(SCc2coc3ccccc3c2=O)n[nH]1`: the IC50 in the experiment with MCF7 was more than 25 µM; in the experiment on HEp-2 it was 21.3 µM; in experiment [1], 8.3 µM; in the experiment on SW480, 21.4 µM; in experiment [2], 16.9 µM; with HeLa it was more than 25 µM.
For the compound `Cc1nnc(SCc2cc(=O)c3cc(Cl)ccc3o2)s1`, the IC50 (with MCF7; in the experiment with HEp-2; in experiment [1]; in the experiment on SW480; in experiment [2]; with HeLa) was more than 25 µM in each case.
Take `Cc1cc(C)n2nc(SCc3nnc(SCn4cnc5c(Cl)cccc5c4=O)s3)nc2n1`: the 50% inhibitory concentration (IC50) (with MCF7; with HEp-2; in experiment [1]; with SW480; in experiment [2]; in the experiment on HeLa) was more than 25 µM each time.
Take `O=c1cc(SCn2cnc3c(Cl)cccc3c2=O)sc2ccccc12`: the concentration for half-maximal inhibition (IC50) (in the experiment with MCF7; in the experiment with HEp-2; in experiment [1]; in the experiment on SW480; in experiment [2]; with HeLa) was more than 25 µM each time.
For `O=c1c2cccc(Cl)c2ncn1CSc1nc2ccccc2o1`, the IC50 (with MCF7; with HEp-2; in experiment [1]; in the experiment with SW480; in experiment [2]; in the experiment with HeLa) was more than 25 µM each time.
